Measured values from patent US20110098296A1, “Thiazole And Oxazole Kinase Inhibitors” (priority 2007, published 2011).

Legend:
ErbB2 = target: T1, ErbB2 (Homo sapiens, UniProt P04626); test: ErbB-2 substrate phosphorylation assay (HTRF); assay type: biochemical; conditions: Method (A): Enzyme Mix incubated with compound at 20° C. for 1 hr, reaction started by adding Substrate Mix
T1 construct: made in house; host or cells: baculovirus expression system
Summary of the method: (§1)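 Baculovirus-expressed kinase (0.8 nM EGFR or 10 nM ErbB2 in enzyme mix) with Peptide C 0.8 μM and ATP 20 μM (substrate-mix levels), MOPS pH 7.5, MnCl2; 90 min, 20 °C, HTRF anti-phosphotyrosine. Method A adds 1 h enzyme–compound preincubation; B none. pIC50, final compound 0.00027–47.6 μM.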

EGFR = target: T2, EGFR (Homo sapiens, UniProt P00533); test: EGFR substrate phosphorylation assay (HTRF); assay type: biochemical; conditions: Method (A): Enzyme Mix incubated with compound at 20° C. for 1 hr, reaction started by adding Substrate Mix
T2 construct: made in house; host or cells: baculovirus expression system
Summary of the method: as §1

T1 sequence (P04626 23-1255): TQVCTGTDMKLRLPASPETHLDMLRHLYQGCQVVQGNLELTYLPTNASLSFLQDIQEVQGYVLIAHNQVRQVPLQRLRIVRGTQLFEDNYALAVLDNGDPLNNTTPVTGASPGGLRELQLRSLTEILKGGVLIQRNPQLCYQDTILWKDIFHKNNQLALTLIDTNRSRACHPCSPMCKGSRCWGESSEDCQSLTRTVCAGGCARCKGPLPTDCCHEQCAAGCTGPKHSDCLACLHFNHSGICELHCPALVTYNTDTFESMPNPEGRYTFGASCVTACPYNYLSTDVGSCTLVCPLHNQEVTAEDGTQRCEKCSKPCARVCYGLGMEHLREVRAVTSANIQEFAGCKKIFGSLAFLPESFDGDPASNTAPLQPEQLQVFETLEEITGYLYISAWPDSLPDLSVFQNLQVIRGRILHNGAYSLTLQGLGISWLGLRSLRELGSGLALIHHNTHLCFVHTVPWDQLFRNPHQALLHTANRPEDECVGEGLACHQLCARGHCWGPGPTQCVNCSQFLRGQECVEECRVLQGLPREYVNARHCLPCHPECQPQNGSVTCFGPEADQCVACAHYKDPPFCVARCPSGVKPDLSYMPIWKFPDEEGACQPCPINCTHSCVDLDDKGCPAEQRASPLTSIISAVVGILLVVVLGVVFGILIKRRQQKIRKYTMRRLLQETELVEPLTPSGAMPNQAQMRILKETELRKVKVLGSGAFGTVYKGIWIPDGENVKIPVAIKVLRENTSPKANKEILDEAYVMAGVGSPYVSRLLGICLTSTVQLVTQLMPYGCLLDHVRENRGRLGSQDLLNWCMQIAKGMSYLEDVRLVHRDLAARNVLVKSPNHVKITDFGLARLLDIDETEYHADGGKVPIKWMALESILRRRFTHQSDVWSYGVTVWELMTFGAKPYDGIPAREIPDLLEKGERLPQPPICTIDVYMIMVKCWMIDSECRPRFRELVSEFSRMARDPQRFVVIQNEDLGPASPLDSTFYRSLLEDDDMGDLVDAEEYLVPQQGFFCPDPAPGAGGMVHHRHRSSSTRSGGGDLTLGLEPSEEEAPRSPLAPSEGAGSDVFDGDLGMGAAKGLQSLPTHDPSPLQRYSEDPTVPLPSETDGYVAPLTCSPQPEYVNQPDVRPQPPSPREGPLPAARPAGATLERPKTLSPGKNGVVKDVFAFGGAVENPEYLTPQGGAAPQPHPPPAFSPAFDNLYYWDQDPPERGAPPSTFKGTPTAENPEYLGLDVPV
T2 sequence (P00533 25-1210): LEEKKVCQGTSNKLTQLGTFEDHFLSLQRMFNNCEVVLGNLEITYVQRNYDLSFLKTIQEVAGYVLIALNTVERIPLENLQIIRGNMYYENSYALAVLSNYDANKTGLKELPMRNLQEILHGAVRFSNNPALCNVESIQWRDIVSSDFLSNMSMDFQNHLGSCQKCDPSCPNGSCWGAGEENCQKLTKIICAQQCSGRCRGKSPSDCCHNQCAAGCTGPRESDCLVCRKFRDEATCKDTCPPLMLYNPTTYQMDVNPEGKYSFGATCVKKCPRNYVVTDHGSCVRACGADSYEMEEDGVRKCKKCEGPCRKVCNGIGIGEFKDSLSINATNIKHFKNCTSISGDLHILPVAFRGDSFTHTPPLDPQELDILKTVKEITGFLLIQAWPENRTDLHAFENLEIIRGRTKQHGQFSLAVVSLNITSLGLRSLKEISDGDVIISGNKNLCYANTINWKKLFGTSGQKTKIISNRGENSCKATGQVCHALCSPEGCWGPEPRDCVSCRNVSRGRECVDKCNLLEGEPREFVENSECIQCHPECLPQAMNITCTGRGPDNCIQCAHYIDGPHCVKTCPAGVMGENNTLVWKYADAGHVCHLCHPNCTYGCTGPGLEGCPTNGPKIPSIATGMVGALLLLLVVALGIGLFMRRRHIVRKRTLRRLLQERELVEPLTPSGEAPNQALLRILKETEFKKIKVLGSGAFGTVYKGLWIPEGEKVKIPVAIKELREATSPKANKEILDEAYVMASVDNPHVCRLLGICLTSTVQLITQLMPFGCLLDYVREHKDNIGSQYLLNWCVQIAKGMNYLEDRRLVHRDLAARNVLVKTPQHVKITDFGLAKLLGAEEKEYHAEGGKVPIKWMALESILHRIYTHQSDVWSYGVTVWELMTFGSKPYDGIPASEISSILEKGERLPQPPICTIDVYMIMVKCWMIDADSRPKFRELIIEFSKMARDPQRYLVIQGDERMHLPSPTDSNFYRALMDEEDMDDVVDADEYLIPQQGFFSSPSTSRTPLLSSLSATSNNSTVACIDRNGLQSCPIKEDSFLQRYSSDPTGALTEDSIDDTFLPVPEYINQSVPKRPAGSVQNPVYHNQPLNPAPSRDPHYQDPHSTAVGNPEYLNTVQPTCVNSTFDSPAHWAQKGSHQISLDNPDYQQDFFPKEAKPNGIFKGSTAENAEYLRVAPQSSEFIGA

Row | SMILES | IC50 (ErbB2) [nM] | IC50 (EGFR) [nM]
1 | COc1cc(Nc2nccc(-c3sc(N)nc3-c3cccc(NC(=O)c4c(F)cccc4F)c3)n2)cc(OC)c1OC [Example 16, N-[3-(2-Amino-5-{2-[(3,4,5-trimethoxyphenyl)amino]pyrimidiN-4-yl}-1,3-thiazol-4-yl)phenyl]-2,6-difluorobenzamide] | < 100 | < 100
2 | COc1ccc(Nc2nccc(-c3sc(N)nc3-c3cccc(NC(=O)c4c(F)cccc4F)c3)n2)cc1N1CCNCC1 [Example 18, N-[3-(2-Amino-5-{2-[(4-methoxy-3-piperaziN-1-ylphenyl)amino]pyrimidiN-4-yl}-1,3-thiazol-4-yl)phenyl]-2,6-difluorobenzamide] | < 100 | < 100
3 | Cc1cc(-c2sc(N)nc2-c2cccc(NC(=O)c3c(F)cccc3F)c2)nc(Nc2cccc(F)c2)n1 [Example 48, N-[3-(2-Amino-5-{2-[(3-fluorophenyl)amino]-6-methyl-4-pyrimidinyl}-1,3-thiazol-4-yl)phenyl]-2,6-difluorobenzamide] | > 1000 | 100 to 1000
4 | CCNc1nc(-c2cccc(NC(=O)C3CC3)c2)c(-c2ccnc(Nc3ccc(OCCN4CCCC4)c(Cl)c3)n2)s1 [Example 63, N-{3-[5-{2-[(3-Chloro-4-{[2-(1-pyrrolidinyl)ethyl]oxy}phenyl)amino]-4-pyrimidinyl}-2-(ethylamino)-1,3-thiazol-4-yl]phenyl}cyclopropanecarboxamide] | < 100 | < 100
5 | Nc1nc(-c2cccc(C(=O)Nc3c(F)cccc3F)c2)c(-c2ccnc(Nc3cccc(CN4CCCC4)c3)n2)s1 [Example 77, 3-[2-Amino-5-(2-{[3-(1-pyrrolidinylmethyl)phenyl]amino}-4-pyrimidinyl)-1,3-thiazol-4-yl]-N-(2,6-difluorophenyl)benzamide] | < 100 | < 100
6 | Cc1nc(-c2cccc(NC(=O)c3c(F)cccc3F)c2)c(-c2ccnc(Nc3ccc(OCCN(C)C)c(Cl)c3)n2)s1 [Example 103, N-[3-(5-{2-[(3-Chloro-4-{[2-(dimethylamino)ethyl]oxy}phenyl)amino]-4-pyrimidinyl}-2-methyl-1,3-thiazol-4-yl)phenyl]-2,6-difluorobenzamide] | < 100 | < 100
7 | Cc1nc(-c2cccc(NC(=O)c3c(F)cccc3F)c2)c(-c2ccnc(Nc3ccc(OC4CCN(C(=O)OCc5ccccc5)CC4)c(F)c3)n2)s1 [Example 106] | < 100 | < 100
8 | CCc1nc(-c2cccc(NC(=O)c3c(F)cccc3F)c2)c(-c2ccnc(Nc3cccc(CN4CCCC4)c3)n2)s1 [Example 115, N-{3-[2-Ethyl-5-(2-{[3-(1-pyrrolidinylmethyl)phenyl]amino}-4-pyrimidinyl)-1,3-thiazol-4-yl]phenyl}-2,6-difluorobenzamide] | < 100 | < 100
9 | Cc1nc(-c2cccc(NC(=O)c3cc(F)ccc3F)c2)c(-c2ccnc(Nc3ccc(OCCN(C)C)c(Cl)c3)n2)o1 [Example 142] | < 100 | < 100
